{"source": "patent US20020165281A1", "about": "“Treatment of anoxic encephalophathy by administration of N-acetylcystein” (priority 2001, published 2002)", "system": "anoxic encephalopathy and ischemic events", "test": "Clinical case reports of patients with anoxic encephalopathy or ischemic events treated with N-acetylcystein", "format": "in vivo, human", "from_the_text": "A person was admitted to the intensive care unit in a deep coma. Several hours prior to the admission, they suffered from a persistent ventricular arrhythmia that led to a cardiac arrest. They required nine successive electroshocks in order to reestablish their regular cardiac rhythm. The total interruption time of their blood supply to the brain was considered to be more than ten minutes. […] Their pupils were fixed and dilated, and they were placed on a mechanical ventilation. As they were unable to trigger the ventilator by themself, they were placed on an automatic mode of mechanical ventilation. There was no improvement in their condition over the next forty-eight hours. A neurologist determined their condition to be irreversible and hopeless. A second neurologist concurred. During the forty-eight hour interval, the patient was given 600 mg of N-acetylcystein in a twenty percent solution, administered via a nasal-gastric tube every twelve hours. […] They awakened and was able to communicate by head nods and facial expressions.\nA high school teacher went into a cardiac arrest while driving in their car. By the time they arrived at a hospital emergency room and was resuscitated, a period of twenty to thirty minutes of an interruption of the blood supply to the brain had elapsed. Even though the cardiac resuscitation efforts were successful, they remained in a deep coma, a vegetative state, and required a life supporting mechanical ventilation. Over the next two years, they remained on mechanical ventilation, gastrostomy tube feedings, and in a coma without any improvement in their cerebral or neurological functions. Their prognosis for recovery was considered hopeless.\nApproximately two years after the cardiac arrest, they were administered 600 mg of N-acetylcystein in a twenty percent solution twice daily. Over the next several months, they made a remarkable recovery. […] They became alert and able to respond initially to tacit and aural stimuli, and later they were able to understand simple sentences.\nA person lapsed into a coma from a cerebral hemorrhage secondary to a vascular stroke. As their condition continued to deteriorate, they required a life supporting mechanical ventilation. Several months later they developed a brain abscess that required a craniotomy. This was followed by the appearance of an intense seizure disorder.\nFollowing the surgery, it became possible to gradually wean […] from the respirator, but […] remained in a semi-vegetative state, unable to respond to aural stimuli and fed by a gastrostomy tube. […] remained completely bedridden.\nMore than three years after the initial event, they were administered 600 mg of N-acetylcystein in a twenty percent solution twice daily via their gastrostomy tube. Over the next several months, they made a remarkable recovery. […] By the third month of treatment, they were able to sit in a wheelchair and express their wishes to be driven around the facility where they resided. By the fourth month of the treatment, they regained the capacity to express themself verbally even though it was restricted to a vocabulary of mono and disyllabic words. They also regained the ability to lift their head, which i previously lay flexed upon their chest, without the use of an assisting device. […] Their neurological and cerebral recoveries continued to progress.\nA medical technician experienced a series of multiple strokes that led to a semi-comatose state lasting more than two years. Their medical condition deteriorated over time with the development of multi-organ failures. They required a mechanical ventilation and hemo-dialysis for life support. Three years after the onset of their condition and several months after all efforts to wean them from the respirator failed, they were initially administered 600 mg of N-acetylcystein in a twenty percent solution twice daily via a gastrostomy tube.", "data": [{"molecule": "CC(=O)N[C@@H](CS)C(=O)O", "note": "[N-acetylcystein]", "values": [{"measurement": "Overall therapeutic efficacy indicated by the four cases", "setting": "acute phase and many months or years after the initial event", "value": "reversing a coma as well as other neurological deficits"}, {"measurement": "Breathing / respirator dependence, Case No. 1", "setting": "person on mechanical ventilation, 600 mg every twelve hours via nasal-gastric tube, forty-eight hour period", "value": "able to breath partially on their own without the respirator"}, {"measurement": "Coma / neurological outcome, Case No. 2", "setting": "person, coma for two years after cardiac arrest, 600 mg in twenty percent solution twice daily, over several months", "value": "awakened from their coma"}, {"measurement": "Verbal response, Case No. 2", "setting": "person, coma for two years, 600 mg twice daily, by the fourth month of treatment", "value": "able to respond verbally"}, {"measurement": "Coma / neurological outcome, Case No. 1", "setting": "person, deep coma after cardiac arrest, 600 mg in twenty percent solution via nasal-gastric tube every twelve hours, forty-eight hour period", "value": "completely revived from their coma"}, {"measurement": "Respirator dependence, Case No. 4", "setting": "person, multiple strokes, semi-comatose, ventilated, 600 mg twice daily via gastrostomy tube increased to 2400 mg daily", "value": "improved and no longer needed the respirator"}, {"measurement": "Ambulation, Case No. 3", "setting": "person, previously bedridden, 600 mg twice daily via gastrostomy tube, by the fifth month of treatment", "value": "able to ambulate more than one hundred steps with the aid of a walker or the wheelchair"}, {"measurement": "Neurological outcome, Case No. 3", "setting": "person, semi-vegetative state more than three years after cerebral hemorrhage/stroke, 600 mg twice daily via gastrostomy tube, over several months", "value": "became completely alert and able to respond to simple verbal commands"}, {"measurement": "Respirator dependence, Case No. 2", "setting": "person, two years on mechanical ventilation, 600 mg twice daily", "value": "no longer needed the respirator"}]}]}
